Biological target: T1, ALK5 kinase (Homo sapiens, UniProt P36897)
T1 construct: GST; purchased Thermo Fisher Scientific Solutions
T1 sequence (P36897 34-503): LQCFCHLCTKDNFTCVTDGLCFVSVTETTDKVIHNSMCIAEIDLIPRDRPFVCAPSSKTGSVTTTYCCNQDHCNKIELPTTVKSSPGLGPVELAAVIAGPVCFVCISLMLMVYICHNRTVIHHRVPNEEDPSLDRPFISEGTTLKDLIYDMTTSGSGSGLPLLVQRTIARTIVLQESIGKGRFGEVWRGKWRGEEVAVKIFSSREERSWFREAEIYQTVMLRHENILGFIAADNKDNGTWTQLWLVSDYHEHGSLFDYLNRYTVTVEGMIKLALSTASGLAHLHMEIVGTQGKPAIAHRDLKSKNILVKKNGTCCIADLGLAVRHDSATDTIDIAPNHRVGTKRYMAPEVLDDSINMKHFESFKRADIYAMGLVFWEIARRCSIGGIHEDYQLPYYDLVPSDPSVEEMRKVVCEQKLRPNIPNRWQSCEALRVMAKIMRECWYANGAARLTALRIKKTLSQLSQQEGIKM
Test: Activity inhibition test on ALK5 enzyme (LanthaScreen Eu binding kinase assay)
Conditions: kinase tracer 178, 60 minutes at room temperature
Summary of the method: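 TR-FRET tracer-displacement format with final 5 nM ALK5, 2 nM Eu-GST antibody and 10 nM kinase tracer 178. Compound dilution series ran 1 μM–0.0001 μM, incubated 60 min at room temperature with stirring. Fluorescence was read ([…]), and IC50 came from percent inhibition versus control.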

| IC50 | SMILES |
| --- | --- |
| 1 nM | Cc1cccc(-n2nc(C(=O)Nc3cn[nH]c3)cc2-c2ccc(F)c(-c3cnn(CCO)c3)c2)n1 [Example 222, N-(1H-pyrazol-4-yl)-5-(4-fluoro-3-(1-(2-hydroxyethyl)-1H-pyrazol-4-yl)phenyl)-1-(6-methylpyridin-2-yl)-1H-pyrazole-3-carboxyamide] |
| 10 to 100 nM | Cc1cccc(-n2nc(C(=O)Nc3cccc(Br)c3)cc2-c2ccc3ncnn3c2)n1 [Example 131, 5-([1,2,4]triazolo[1,5-α]pyridin-6-yl)-N-(3-bromophenyl)-1-(6-methylpyridin-2-yl)-1H-pyrazole-3-carboxyamide] |
| 3.1 nM | Cc1cccc(-n2nc(C(=O)Nc3cnn(S(C)(=O)=O)c3)cc2-c2ccc(F)c(-c3cnn(CCO)c3)c2)n1 [Example 224, N-(1-(methylsulfonyl)-1H-pyrazol-4-yl)-5-(4-fluoro-3-(1-(2-hydroxyethyl)-1H-pyrazol-4-yl)phenyl)-1-(6-methylpyridin-2-yl)-1H-pyrazole-3-carboxyamide] |
| 33 nM | Cc1cccc(-n2nc(C(=O)Nc3ccc(Cl)cc3)cc2-c2ccc(F)c(-c3cnn(CCO)c3)c2)n1 [Example 225, N-(4-chlorophenyl)-5-(4-fluoro-3-(1-(2-hydroxyethyl)-1H-pyrazol-4-yl)phenyl)-1-(6-methylpyridin-2-yl)-1H-pyrazole-3-carboxyamide] |
| 10 to 100 nM | COc1ccc(CNC(=O)c2cc(-c3ccc4ncnn4c3)n(-c3cccc(C)n3)n2)cc1 [Example 159, 5-([1,2,4]triazolo[1,5-α]pyridin-6-yl)-N-(4-methoxybenzyl)-1-(6-methylpyridin-2-yl)-1H-pyrazole-3-carboxyamide] |
| ≤ 100 nM | COCCOc1ccc(NC(=O)c2cc(-c3ccc4nccnc4c3)n(-c3cccc(C)n3)n2)cc1 [Example 167, N-(4-(2-methoxyethoxy)phenyl)-1-(6-methylpyridin-2-yl)-5-(quinoxalin-6-yl)-1H-pyrazole-3-carboxyamide] |
| 10 to 100 nM | Cc1cccc(-n2nc(C(=O)Nc3ccc(N4CCN(C)CC4)cc3)cc2-c2ccc3ncnn3c2)n1 [Example 107, 5-([1,2,4]triazolo[1,5-α]pyridin-6-yl)-N-(4-(4-methylpiperazin-1-yl)phenyl)-1-(6-methylpyridin-2-yl)-1H-pyrazole-3-carboxyamide] |
| 10 to 100 nM | Cc1cccc(-n2nc(C(=O)Nc3cccc(N(C)C)c3)cc2-c2ccc3ncnn3c2)n1 [Example 102, 5-([1,2,4]triazolo[1,5-α]pyridin-6-yl)-N-(3-(dimethylamino)phenyl)-1-(6-methylpyridin-2-yl)-1H-pyrazole-3-carboxyamide] |
| 3.2 nM | Cc1cccc(-n2nc(C(=O)Nc3ccc(S(=O)(=O)C4CC4)cc3)cc2-c2ccc3ncoc3c2)n1 [Example 220] |
| 3.9 nM | Cc1cccc(-n2nc(C(=O)Nc3ccc(O)cc3)cc2-c2ccc3ncnn3c2)n1 [Example 93, 5-([1,2,4]triazolo[1,5-α]pyridin-6-yl)-N-(4-hydroxyphenyl)-1-(6-methylpyridin-2-yl)-1H-pyrazole-3-carboxyamide] |
| 10 to 100 nM | Cc1cccc(-n2nc(C(=O)Nc3cccc(C#N)c3)cc2-c2ccc3ncnn3c2)n1 [Example 120, 5-([1,2,4]triazolo[1,5-α]pyridin-6-yl)-N-(3-cyanophenyl)-1-(6-methylpyridin-2-yl)-1H-pyrazole-3-carboxyamide] |
| 13 nM | Cc1cccc(-n2nc(C(=O)Nc3cccc(CS(N)(=O)=O)c3)cc2-c2ccc3ncsc3c2)n1 [Example 60, 5-(benzo[d]thiazol-6-yl)-1-(6-methylpyridin-2-yl)-N-(3-(sulfamoylmethyl)phenyl)-1H-pyrazole-3-carboxyamide] |
| 3.9 nM | Cc1cccc(-n2nc(C(=O)Nc3ccc(F)cc3)cc2-c2ccc3ncsc3c2)n1 [Example 29, 5-(benzo[d]thiazol-6-yl)-N-(4-fluorophenyl)-1-(6-methylpyridin-2-yl)-1H-pyrazole-3-carboxyamide] |
| 2.7 nM | Cc1cccc(-n2nc(C(=O)Nc3cccc(O)c3)cc2-c2ccc3ncsc3c2)n1 [Example 82, 5-(benzo[d]thiazol-6-yl)-N-(3-hydroxyphenyl)-1-(6-methylpyridin-2-yl)-1H-pyrazole-3-carboxyamide] |
| 10 to 100 nM | Cc1cccc(-n2nc(C(=O)NCc3cccc(F)c3)cc2-c2ccc3nccnc3c2)n1 [Example 197, N-(3-fluorobenzyl)-1-(6-methylpyridin-2-yl)-5-(quinoxalin-6-yl)-1H-pyrazole-3-carboxyamide] |
| < 100 nM | Cc1cccc(-n2nc(C(=O)Nc3ccc(C#N)cc3)cc2-c2ccc3nccnc3c2)n1 [Example 174, N-(4-cyanophenyl)-1-(6-methylpyridin-2-yl)-5-(quinoxalin-6-yl)-1H-pyrazole-3-carboxyamide] |
| 2.2 nM | CCCS(=O)(=O)c1ccc(NC(=O)c2cc(-c3ccc4ncsc4c3)n(-c3cccc(C)n3)n2)cc1 [Example 42, 5-(benzo[d]thiazol-6-yl)-1-(6-methylpyridin-2-yl)-N-(4-(propylsulfonyl)phenyl)-1H-pyrazole-3-carboxyamide] |
| 3.8 nM | Cc1cccc(-n2nc(C(=O)Nc3ccc(CO)cc3)cc2-c2ccc3ncsc3c2)n1 [Example 85, 5-(benzo[d]thiazol-6-yl)-N-(4-(hydroxymethyl)phenyl)-1-(6-methylpyridin-2-yl)-1H-pyrazole-3-carboxyamide] |
| ~100 nM | Cc1cccc(-n2nc(C(=O)Nc3ccccc3F)cc2-c2cc3cnccc3s2)c1 [Example 227, N-(2-fluorophenyl)-5-(thieno[3,2,c]pyridin-2-yl)-1-(m-tolyl)-1H-pyrazole-3-carboxyamide] |
| 9.6 nM | CSc1ccc(NC(=O)c2cc(-c3ccc4ncsc4c3)n(-c3cccc(C)n3)n2)cn1 [Example 67, 5-(benzo[d]thiazol-6-yl)-N-(6-(methylthio)pyridin-3-yl)-1-(6-methylpyridin-2-yl)-1H-pyrazole-3-carboxyamide] |
| ~10 nM | Cc1cccc(-n2nc(C(=O)Nc3ccc(F)c(Cl)c3)cc2-c2ccc3ncnn3c2)n1 [Example 140, 5-([1,2,4]triazolo[1,5-α]pyridin-6-yl)-N-(3-chloro-4-fluorophenyl)-1-(6-methylpyridin-2-yl)-1H-pyrazole-3-carboxyamide] |
| < 100 nM | Cc1cccc(-n2nc(C(=O)NCc3ccccc3F)cc2-c2ccc3nccnc3c2)n1 [Example 198, N-(2-fluorobenzyl)-1-(6-methylpyridin-2-yl)-5-(quinoxalin-6-yl)-1H-pyrazole-3-carboxyamide] |
| 10 to 100 nM | COc1ccc(NC(=O)c2cc(-c3ccnc4ccccc34)n(-c3cccc(C)n3)n2)cc1 [Example 210, N-(4-methoxyphenyl)-1-(6-methylpyridin-2-yl)-5-(quinolin-4-yl)-1H-pyrazole-3-carboxyamide] |
| 2.3 nM | Cc1cccc(-n2nc(C(=O)Nc3ccnc(Cl)c3)cc2-c2ccc3ncsc3c2)n1 [Example 74, 5-(benzo[d]thiazol-6-yl)-N-(2-chloropyridin-4-yl)-1-(6-methylpyridin-2-yl)-1H-pyrazole-3-carboxyamide] |
| 3.2 nM | COc1cc(NC(=O)c2cc(-c3ccc4ncsc4c3)n(-c3cccc(C)n3)n2)ccn1 [Example 66, 5-(benzo[d]thiazol-6-yl)-N-(2-methoxypyridin-4-yl)-1-(6-methylpyridin-2-yl)-1H-pyrazole-3-carboxyamide] |

From patent US10954232B2, “Pyrazole derivative as ALK5 inhibitor and uses thereof” (HANMI PHARMACEUTICAL CO., LTD., priority 2016, dated 2021)
